Measured values: US20070032529A1, “Pyrazole compounds and their use as antidiabetes agents” (Japan Tobacco Inc., priority 2005, published 2007)
Where a name gives a salt, the structure may show the parent alone.

Tests used:
[1] = biological target: T1, recombinant human liver glycogen phosphorylase (Homo sapiens, UniProt P06737); assay: Measuring liver glycogen phosphorylase activity (forward reaction system, NADPH absorbance at 340 nm); format: biochemical; conditions: enzyme inhibitory activity with respect to liver glycogen phosphorylase; class symbols
T1 construct: made in house; host or cells: Sf9 insect cells (crude homogenate, diluted, used as the enzyme solution)
T1 sequence (P06737 1-847): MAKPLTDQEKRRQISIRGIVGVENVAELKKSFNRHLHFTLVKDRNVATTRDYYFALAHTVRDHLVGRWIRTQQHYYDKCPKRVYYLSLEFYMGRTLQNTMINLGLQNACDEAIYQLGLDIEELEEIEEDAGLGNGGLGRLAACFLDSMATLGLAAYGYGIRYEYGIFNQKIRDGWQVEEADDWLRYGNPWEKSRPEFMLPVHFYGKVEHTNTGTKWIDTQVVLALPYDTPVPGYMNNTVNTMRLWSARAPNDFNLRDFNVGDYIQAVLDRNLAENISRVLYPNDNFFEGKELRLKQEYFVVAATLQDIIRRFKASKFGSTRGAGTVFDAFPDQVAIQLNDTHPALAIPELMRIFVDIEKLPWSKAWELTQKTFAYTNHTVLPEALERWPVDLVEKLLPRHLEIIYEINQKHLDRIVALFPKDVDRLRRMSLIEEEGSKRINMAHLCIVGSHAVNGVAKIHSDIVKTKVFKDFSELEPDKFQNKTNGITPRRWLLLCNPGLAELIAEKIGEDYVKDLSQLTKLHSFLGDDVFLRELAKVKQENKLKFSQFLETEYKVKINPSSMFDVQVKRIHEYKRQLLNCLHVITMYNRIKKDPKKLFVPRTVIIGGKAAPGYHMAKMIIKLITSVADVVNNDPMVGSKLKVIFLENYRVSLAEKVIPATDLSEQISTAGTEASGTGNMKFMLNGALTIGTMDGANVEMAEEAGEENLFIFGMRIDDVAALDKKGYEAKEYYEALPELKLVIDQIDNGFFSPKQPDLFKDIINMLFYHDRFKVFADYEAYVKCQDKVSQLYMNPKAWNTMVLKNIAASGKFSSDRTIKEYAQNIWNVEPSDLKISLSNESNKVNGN
Summary of the method: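 Sf9 homogenate expressing the enzyme, in pH 6.8 BES/EDTA, with glycogen and phosphate substrate plus glucose, coupled via phosphoglucomutase/G6PDH to NADPH formation. A340 change over 75 min at room temperature, blank-corrected; IC50 linearly interpolated between the two concentrations bracketing 50% inhibition versus 1% DMSO control.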

[2] = tested on: db/db mice; assay: Measuring blood plasma glucose concentration in db/db mice (hypoglycemic effect); format: in vivo; set-up: key: ++: compounds exhibiting statistically significant hypoglycemic effect at a dose of 10 mg/kg or less; +: compounds exhibiting not significant but obvious hypoglycemic effect at a dose of 10 mg/kg; conditions: db/db mice fasted 4 h, oral administration, plasma glucose 1 and 3 hours after administration, dose 10 mg/kg or less, Dunnett test vs solvent
Method: 2. Exemplary Test (2) Method for Measuring Blood Plasma Glucose Concentration
Using db/db mice representing an obesity type of diabetic model were used to examine the effect of compound (1) of the present invention on glucose concentrations in plasma. Plasma glucose concentrations of the db/db mice (9-18 weeks old) were measured, and the mice were divided into groups each of 5 or 8 mice such that there would be no difference in the average value of plasma glucose concentrations. After fasting for four hours, the example compound or the solvent (0.5% methylcellulose) was administered orally to the db/db mice, and plasma glucose concentrations were measured 1 and 3 hours after administration. The analysis of the hypoglycemic effect of the example compound was performed through a statistical test at every hour between the group receiving the solvent and the groups of example compound (Dunnett test).

SMILES	IC50 [1]	vivo (hypoglycemic effect in db/db mice) [2]	vivo (hypoglycemic effect in db/db mice) ([2]; 10 mg/kg)
COc1ccc(CN(C(=O)c2cc(NC(=O)c3cc(F)c(F)cc3Cl)[nH]n2)C2CC2)cn1 [Example 1-126]	< 100 nM	+	–
COc1ccc(CN(C(=O)c2cc(NC(=O)c3cc(F)c(F)cc3Cl)[nH]n2)C2CCC2)cn1 [Example 1-127]	< 100 nM	+	–
COc1ccc(CN(CC2CC2)C(=O)c2cc(NC(=O)c3cc(F)c(F)cc3Cl)[nH]n2)cn1 [Example 1-128]	< 100 nM	+	–
CN(C)c1ccc(CNC(=O)c2cc(NC(=O)c3cc(F)c(F)cc3Cl)[nH]n2)cn1 [Example 1-129]	< 100 nM	–	+
CCCN(Cc1ccc(N(C)C)nc1)C(=O)c1cc(NC(=O)c2cc(F)c(F)cc2Cl)[nH]n1 [Example 1-130]	< 100 nM	+	–
CCCN(Cc1ccc(Cl)nc1)C(=O)c1cc(NC(=O)c2cc(F)c(F)cc2Cl)[nH]n1 [Example 1-133]	< 100 nM	+	–
O=C(NCc1c(Cl)cccc1Cl)c1cc(NC(=O)c2cc(F)c(F)cc2Cl)[nH]n1 [Example 1-134]	< 100 nM	+	–
O=C(NCc1c(Cl)cncc1Cl)c1cc(NC(=O)c2cc(F)c(F)cc2Cl)[nH]n1 [Example 1-135]	< 100 nM	+	–
CCCN(Cc1c(Cl)cncc1Cl)C(=O)c1cc(NC(=O)c2cc(F)c(F)cc2Cl)[nH]n1 [Example 1-136]	< 100 nM	+	–
O=C(NCc1ccc(-n2cccn2)nc1)c1cc(NC(=O)c2cc(F)c(F)cc2Cl)[nH]n1 [Example 1-137]	< 100 nM	+	–
O=C(NCc1ccc(N2CCC(O)CC2)nc1)c1cc(NC(=O)c2cc(F)c(F)cc2Cl)[nH]n1 [Example 1-138]	< 100 nM	+	–
Cc1cc(C)c(CNC(=O)c2cc(NC(=O)c3cc(F)c(F)cc3Cl)[nH]n2)cn1 [Example 2-4-1, 5-(2-chloro-4,5-difluoro-benzoylamino)-1H-pyrazole-3-carboxylic acid (4,6-dimethyl-pyridin-3-ylmethyl)-amide dihydrochloride]	< 100 nM	++	–
COc1nc(C)ccc1CNC(=O)c1cc(NC(=O)c2cc(F)c(F)cc2Cl)[nH]n1 [Example 2-5, 5-(2-chloro-4,5-difluoro-benzoylamino)-1H-pyrazole-3-carboxylic acid (2-methoxy-6-methyl-pyridin-3-ylmethyl)-amide]	< 100 nM	++	–
COc1cc(C)ncc1CNC(=O)c1cc(NC(=O)c2cc(F)c(F)cc2Cl)[nH]n1 [Example 2-6, 5-(2-chloro-4,5-difluoro-benzoylamino)-1H-pyrazole-3-carboxylic acid (4-methoxy-6-methyl-pyridin-3-ylmethyl)-amide]	< 100 nM	++	–
COc1nc(C)cc(C)c1CNC(=O)c1cc(NC(=O)c2cc(F)c(F)cc2Cl)[nH]n1 [Example 2-7-1, 5-(2-chloro-4,5-difluoro-benzoylamino)-1H-pyrazole-3-carboxylic acid (2-methoxy-4,6-dimethyl-pyridin-3-ylmethyl)-amide dihydrochloride]	< 100 nM	++	–
Cc1cccnc1CNC(=O)c1cc(NC(=O)c2cc(F)c(F)cc2Cl)[nH]n1 [Example 2-8]	< 100 nM	+	–
Cc1ccnc(CNC(=O)c2cc(NC(=O)c3cc(F)c(F)cc3Cl)[nH]n2)c1 [Example 2-9]	< 100 nM	+	–
Cc1ccc(CNC(=O)c2cc(NC(=O)c3cc(F)c(F)cc3Cl)[nH]n2)nc1 [Example 2-10]	< 100 nM	+	–
Cc1cccc(CNC(=O)c2cc(NC(=O)c3cc(F)c(F)cc3Cl)[nH]n2)n1 [Example 2-11]	< 100 nM	+	–

SMILES	IC50 [1]	vivo (hypoglycemic effect in db/db mice) [2]	vivo (hypoglycemic effect in db/db mice) ([2]; 10 mg/kg)
O=C(NCc1ccc(F)nc1)c1cc(NC(=O)c2cc(F)c(F)cc2Cl)[nH]n1 [Example 2-13]	< 100 nM	+	–
CS(=O)(=O)Nc1cccc(CNC(=O)c2cc(NC(=O)c3cc(F)c(F)cc3Cl)[nH]n2)c1 [Example 2-15]	< 100 nM	+	–
O=C(NCc1ccc(Cl)nc1)c1cc(NC(=O)c2cc(F)c(F)cc2Cl)[nH]n1 [Example 2-23]	< 100 nM	+	–
O=C(NCc1cccnc1Cl)c1cc(NC(=O)c2cc(F)c(F)cc2Cl)[nH]n1 [Example 2-24]	< 100 nM	+	–
O=C(NCc1cccnc1F)c1cc(NC(=O)c2cc(F)c(F)cc2Cl)[nH]n1 [Example 2-27]	< 100 nM	+	–
Cc1ncccc1CNC(=O)c1cc(NC(=O)c2cc(F)c(F)cc2Cl)[nH]n1 [Example 2-28]	< 100 nM	+	–
O=C(NCc1ccccc1)c1cc(NC(=O)c2cc(F)c(F)cc2Cl)[nH]n1 [Example 3-2, 5-(2-chloro-4,5-difluoro-benzoylamino)-1H-pyrazole-3-carboxylic acid benzylamide]	100 to 300 nM	+	–
CN(C(=O)c1cc(NC(=O)c2cc(F)c(F)cc2Cl)[nH]n1)c1ccccc1 [Example 3-4]	100 to 300 nM	+	–
CCN(C(=O)c1cc(NC(=O)c2cc(F)c(F)cc2Cl)[nH]n1)c1ccccc1 [Example 3-11]	< 100 nM	+	–
Cl.O=C(NCc1ccccn1)c1cc(NC(=O)c2cc(F)c(F)cc2Cl)[nH]n1 [Example 3-20]	< 100 nM	+	–
Cl.O=C(NCc1ccncc1)c1cc(NC(=O)c2cc(F)c(F)cc2Cl)[nH]n1 [Example 3-21]	< 100 nM	++	–
CN(C)c1ccc(CNC(=O)c2cc(NC(=O)c3cc(F)c(F)cc3Cl)[nH]n2)cc1 [Example 3-24]	< 100 nM	+	–
O=C(NCc1ccco1)c1cc(NC(=O)c2cc(F)c(F)cc2Cl)[nH]n1 [Example 3-25]	< 100 nM	+	–
O=C(NCc1cccs1)c1cc(NC(=O)c2cc(F)c(F)cc2Cl)[nH]n1 [Example 3-26]	< 100 nM	+	–
Nc1ccc(CNC(=O)c2cc(NC(=O)c3cc(F)c(F)cc3Cl)[nH]n2)cc1 [Example 3-31]	< 100 nM	+	–
Cc1ccccc1CNC(=O)c1cc(NC(=O)c2cc(F)c(F)cc2Cl)[nH]n1 [Example 3-32]	< 100 nM	+	–
Cc1cccc(CNC(=O)c2cc(NC(=O)c3cc(F)c(F)cc3Cl)[nH]n2)c1 [Example 3-33]	< 100 nM	+	–
COc1ncccc1CNC(=O)c1cc(NC(=O)c2cc(F)c(F)cc2Cl)[nH]n1 [Example 3-35]	< 100 nM	++	–
COC(=O)c1cccc(CNC(=O)c2cc(NC(=O)c3cc(F)c(F)cc3Cl)[nH]n2)c1 [Example 3-38]	< 100 nM	+	–
